Columns and labels:
Assay in all cases: biochemical
EphA1 = target: T1, EphA1 (Homo sapiens, UniProt P21709)
T1 sequence (P21709 1-976): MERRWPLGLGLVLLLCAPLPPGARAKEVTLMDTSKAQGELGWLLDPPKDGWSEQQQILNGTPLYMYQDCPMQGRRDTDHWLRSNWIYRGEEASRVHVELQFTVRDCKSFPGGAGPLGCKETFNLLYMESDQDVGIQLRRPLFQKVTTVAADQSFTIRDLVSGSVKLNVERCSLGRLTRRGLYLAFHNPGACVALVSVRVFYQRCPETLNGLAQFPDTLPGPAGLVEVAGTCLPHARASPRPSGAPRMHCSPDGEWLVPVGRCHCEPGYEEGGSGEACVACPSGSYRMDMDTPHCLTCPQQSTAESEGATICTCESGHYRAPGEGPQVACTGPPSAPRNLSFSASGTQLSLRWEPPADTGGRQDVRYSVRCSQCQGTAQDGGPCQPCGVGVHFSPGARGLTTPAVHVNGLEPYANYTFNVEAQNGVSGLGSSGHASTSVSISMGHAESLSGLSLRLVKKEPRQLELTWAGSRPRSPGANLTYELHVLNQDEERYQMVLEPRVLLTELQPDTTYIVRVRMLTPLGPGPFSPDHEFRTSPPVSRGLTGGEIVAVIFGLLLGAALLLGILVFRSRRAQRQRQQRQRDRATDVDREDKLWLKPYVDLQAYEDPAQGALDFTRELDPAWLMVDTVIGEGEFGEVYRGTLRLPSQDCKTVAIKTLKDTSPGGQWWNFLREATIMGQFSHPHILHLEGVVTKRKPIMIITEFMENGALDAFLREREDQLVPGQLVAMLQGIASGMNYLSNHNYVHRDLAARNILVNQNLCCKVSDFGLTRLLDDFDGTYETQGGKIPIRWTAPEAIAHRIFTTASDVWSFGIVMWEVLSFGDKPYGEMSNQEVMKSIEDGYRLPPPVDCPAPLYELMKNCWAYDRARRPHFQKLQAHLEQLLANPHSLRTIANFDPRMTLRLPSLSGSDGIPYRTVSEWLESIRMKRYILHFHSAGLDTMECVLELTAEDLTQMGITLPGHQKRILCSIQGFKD

BMPR1B = BMPR1B (Homo sapiens, UniProt O00238)
Sequence of BMPR1B (O00238 whole entry): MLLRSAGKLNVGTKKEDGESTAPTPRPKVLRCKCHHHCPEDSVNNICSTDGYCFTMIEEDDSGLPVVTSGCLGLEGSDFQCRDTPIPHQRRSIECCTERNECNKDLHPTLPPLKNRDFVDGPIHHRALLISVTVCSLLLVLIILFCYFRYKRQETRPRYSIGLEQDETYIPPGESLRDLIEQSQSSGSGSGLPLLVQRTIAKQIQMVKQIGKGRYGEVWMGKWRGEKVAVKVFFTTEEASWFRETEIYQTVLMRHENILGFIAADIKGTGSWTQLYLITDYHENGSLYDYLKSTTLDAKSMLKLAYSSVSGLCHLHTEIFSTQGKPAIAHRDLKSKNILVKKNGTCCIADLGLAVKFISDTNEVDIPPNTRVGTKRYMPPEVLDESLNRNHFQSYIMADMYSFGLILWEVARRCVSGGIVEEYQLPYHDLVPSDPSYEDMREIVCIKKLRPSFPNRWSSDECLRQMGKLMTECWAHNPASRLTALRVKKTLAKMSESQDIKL

ACVR1 = target: T2, ACVR1 (Homo sapiens, UniProt Q04771)
T2 sequence (Q04771 1-509): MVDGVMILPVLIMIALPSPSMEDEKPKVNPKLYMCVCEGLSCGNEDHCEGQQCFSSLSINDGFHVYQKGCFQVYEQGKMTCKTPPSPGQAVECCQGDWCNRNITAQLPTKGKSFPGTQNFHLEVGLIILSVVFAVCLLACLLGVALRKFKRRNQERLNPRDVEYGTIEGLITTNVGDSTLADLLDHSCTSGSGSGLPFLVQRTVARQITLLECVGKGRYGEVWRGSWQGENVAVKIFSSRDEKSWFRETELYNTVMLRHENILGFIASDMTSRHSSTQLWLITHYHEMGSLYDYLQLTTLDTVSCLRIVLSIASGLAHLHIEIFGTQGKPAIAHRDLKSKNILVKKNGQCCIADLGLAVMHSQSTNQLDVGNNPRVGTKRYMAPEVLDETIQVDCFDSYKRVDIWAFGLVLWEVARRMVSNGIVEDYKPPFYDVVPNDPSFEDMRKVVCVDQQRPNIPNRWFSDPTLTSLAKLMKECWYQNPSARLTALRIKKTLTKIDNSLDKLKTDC

[1] = target: AarF domain containing kinase 3, ADCK3 (Homo sapiens, UniProt Q8NI60)
Sequence of AarF domain containing kinase 3, ADCK3 (Q8NI60 163-647): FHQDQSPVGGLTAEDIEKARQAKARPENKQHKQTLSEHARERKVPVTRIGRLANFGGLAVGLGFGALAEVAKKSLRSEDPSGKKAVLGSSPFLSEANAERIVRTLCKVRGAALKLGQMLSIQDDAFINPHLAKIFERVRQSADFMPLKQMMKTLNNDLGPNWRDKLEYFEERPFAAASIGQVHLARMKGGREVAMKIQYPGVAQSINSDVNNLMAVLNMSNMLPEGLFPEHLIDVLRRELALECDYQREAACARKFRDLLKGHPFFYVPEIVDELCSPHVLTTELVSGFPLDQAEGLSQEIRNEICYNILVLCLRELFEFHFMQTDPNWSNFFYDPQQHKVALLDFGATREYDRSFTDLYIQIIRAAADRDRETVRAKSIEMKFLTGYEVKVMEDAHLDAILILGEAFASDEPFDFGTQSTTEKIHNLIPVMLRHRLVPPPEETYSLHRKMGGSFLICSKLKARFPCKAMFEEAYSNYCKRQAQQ

LCK = LCK (Homo sapiens, UniProt P06239)
Sequence of LCK (P06239 whole entry): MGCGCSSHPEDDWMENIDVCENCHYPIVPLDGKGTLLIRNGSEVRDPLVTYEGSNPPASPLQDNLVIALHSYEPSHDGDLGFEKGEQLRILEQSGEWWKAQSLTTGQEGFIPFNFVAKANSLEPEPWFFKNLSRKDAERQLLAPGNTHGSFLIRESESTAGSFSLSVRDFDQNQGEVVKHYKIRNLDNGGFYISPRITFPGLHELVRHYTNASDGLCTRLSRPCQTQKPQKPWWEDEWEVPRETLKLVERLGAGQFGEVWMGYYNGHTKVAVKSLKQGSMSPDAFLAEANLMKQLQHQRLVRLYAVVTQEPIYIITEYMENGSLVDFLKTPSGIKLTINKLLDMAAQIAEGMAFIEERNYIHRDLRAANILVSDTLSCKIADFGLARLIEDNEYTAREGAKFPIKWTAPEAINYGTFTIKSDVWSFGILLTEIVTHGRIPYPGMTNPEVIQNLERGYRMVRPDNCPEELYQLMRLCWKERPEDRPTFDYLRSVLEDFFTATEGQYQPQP

[2] = target: receptor-interacting protein kinase 2, RIPK2 (Homo sapiens, UniProt O43353)
Sequence of receptor-interacting protein kinase 2, RIPK2 (O43353 whole entry): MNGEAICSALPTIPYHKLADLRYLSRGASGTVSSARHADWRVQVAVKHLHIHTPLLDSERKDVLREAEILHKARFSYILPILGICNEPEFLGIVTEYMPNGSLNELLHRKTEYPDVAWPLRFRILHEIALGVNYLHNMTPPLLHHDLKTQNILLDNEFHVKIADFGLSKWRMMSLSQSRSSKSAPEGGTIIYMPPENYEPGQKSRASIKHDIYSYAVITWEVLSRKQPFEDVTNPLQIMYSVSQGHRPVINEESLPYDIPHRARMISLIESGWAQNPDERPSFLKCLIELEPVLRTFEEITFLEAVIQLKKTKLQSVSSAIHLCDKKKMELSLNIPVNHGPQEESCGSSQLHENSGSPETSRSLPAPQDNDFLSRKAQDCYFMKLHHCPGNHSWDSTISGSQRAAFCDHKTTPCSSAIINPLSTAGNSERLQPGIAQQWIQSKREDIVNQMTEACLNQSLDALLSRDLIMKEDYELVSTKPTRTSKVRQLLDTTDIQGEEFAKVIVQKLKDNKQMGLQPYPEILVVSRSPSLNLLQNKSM

TXK = target: T3, TXK (Homo sapiens, UniProt P42681)
T3 sequence (P42681 1-527): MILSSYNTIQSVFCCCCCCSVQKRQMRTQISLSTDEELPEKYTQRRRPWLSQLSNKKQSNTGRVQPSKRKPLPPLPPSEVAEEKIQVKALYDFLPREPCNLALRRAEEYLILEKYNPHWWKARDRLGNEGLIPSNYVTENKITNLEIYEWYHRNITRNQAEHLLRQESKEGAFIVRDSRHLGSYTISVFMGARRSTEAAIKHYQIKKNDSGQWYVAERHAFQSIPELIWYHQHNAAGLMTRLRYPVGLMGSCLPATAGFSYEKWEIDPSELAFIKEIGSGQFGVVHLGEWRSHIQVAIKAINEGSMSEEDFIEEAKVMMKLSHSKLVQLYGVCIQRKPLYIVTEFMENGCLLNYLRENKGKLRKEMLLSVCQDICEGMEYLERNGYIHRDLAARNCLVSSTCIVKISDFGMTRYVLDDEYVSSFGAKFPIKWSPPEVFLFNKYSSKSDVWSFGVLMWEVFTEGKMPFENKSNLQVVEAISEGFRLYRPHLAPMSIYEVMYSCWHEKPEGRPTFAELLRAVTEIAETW

nemo-like kinase, NLK = target: T4, nemo-like kinase, NLK (Homo sapiens, UniProt Q9UBE8)
T4 sequence (Q9UBE8 1-527): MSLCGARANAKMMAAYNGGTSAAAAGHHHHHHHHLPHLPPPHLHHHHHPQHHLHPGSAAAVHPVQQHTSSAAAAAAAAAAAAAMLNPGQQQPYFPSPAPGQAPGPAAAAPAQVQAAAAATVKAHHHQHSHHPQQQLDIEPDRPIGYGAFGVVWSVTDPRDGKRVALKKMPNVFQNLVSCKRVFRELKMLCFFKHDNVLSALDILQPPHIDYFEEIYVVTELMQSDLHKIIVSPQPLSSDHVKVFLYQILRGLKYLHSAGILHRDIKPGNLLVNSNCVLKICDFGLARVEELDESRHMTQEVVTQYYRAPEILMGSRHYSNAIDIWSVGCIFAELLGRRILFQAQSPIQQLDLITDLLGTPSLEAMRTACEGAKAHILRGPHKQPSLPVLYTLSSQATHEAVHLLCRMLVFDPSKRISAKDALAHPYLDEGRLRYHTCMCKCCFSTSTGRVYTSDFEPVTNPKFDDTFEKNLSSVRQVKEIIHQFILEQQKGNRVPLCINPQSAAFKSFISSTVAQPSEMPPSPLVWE

Measured: Kd

COc1cc(N(C)c2ccnc3ccc(C(F)(F)F)cc23)cc(OC)c1OC [compound 21, negative control (21)]
> 10 µM: all assays above
